{"source": "paper PMC4516937", "about": "(Toxins, 2015)", "molecular_target": "T1, OsUGT79 (Oryza sativa, UniProt Q7XT97)", "T1 construct": "gene UGT79", "T1 sequence (Q7XT97 1-466)": "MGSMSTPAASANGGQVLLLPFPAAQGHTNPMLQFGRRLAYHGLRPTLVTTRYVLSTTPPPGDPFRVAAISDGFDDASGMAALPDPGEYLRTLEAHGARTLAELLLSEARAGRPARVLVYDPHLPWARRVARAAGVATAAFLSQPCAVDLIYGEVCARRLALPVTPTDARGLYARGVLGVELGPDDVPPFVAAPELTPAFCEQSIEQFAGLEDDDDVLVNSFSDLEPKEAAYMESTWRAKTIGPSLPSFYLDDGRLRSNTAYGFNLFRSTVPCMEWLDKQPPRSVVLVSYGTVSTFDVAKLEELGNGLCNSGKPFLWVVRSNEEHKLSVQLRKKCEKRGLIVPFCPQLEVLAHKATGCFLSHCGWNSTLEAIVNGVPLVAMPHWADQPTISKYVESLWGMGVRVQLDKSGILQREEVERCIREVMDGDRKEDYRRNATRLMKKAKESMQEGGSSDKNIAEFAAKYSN", "assay": "glucosylation assay of purified recombinant enzyme with HPLC-MS/MS ([…] DON/[…] UDP-glucose)", "type": "biochemical", "data": [{"smiles": "O=c1ccn([C@@H]2O[C@H](COP(=O)(O)OP(=O)(O)O)[C@@H](O)[C@H]2O)c(=O)[nH]1", "note": "[UDP]", "values": [{"measurement": "IC50", "value": "~1500", "unit": "µM"}]}]}
